{"source": "patent US20070078116A1", "about": "“Method of treatment of otitis externa” (Fairfield Clinical Trials, LLC, priority 2003, published 2007)", "key": {"[1]": {"tested_on": "Candida albicans (ATCC 90028)", "assay": "Filter paper disk test on agar plates containing C. albicans", "assay_type": "cell-based", "conditions": "5 μL or 10 μL on paper disk, 37° C., 24-72 hours", "procedure": "(§1) Candida albicans (ATCC 90028) and Aspergillis fumigatus (ATCC 16424) were tested in vitro for the effect of antifungal compositions according to embodiments of the invention. Fungal cells were obtained from the American Type Culture Collection.\n(§2) C. Albicans yeast cells were grown in YM broth (Difco™ 0711-01) containing the following ingredients: 1% peptone, 1% yeast extract and 2% glucose. The cells were grown at 37° C., harvested by centrifugation, resuspended in the same medium and stored frozen at −80° C. The cells were used at a concentration of about 1×10^6 cells/mL. A. fumigatus was cultured on solid MPG containing 20 g/L malt extract (Difco™ 21860); 1 g/L Difco™ 211677); 20 g/L sucrose and 15 g/L Bacto-agar (Difco™ 140-07-04) in water, at 37° C. for 7 to 10 days. Conidia were harvested by flooding the medium with sterile water, filtered through glass wool to exclude hyphal fragments, washed by centrifugation (5000 xg for 10 minutes at 4° C., resuspended at about 1×10^6 conidia/mL in water and stored at −80° C. until used.\n(§3) For testing, A. fumigatus conidia and C. albicans cells were thawed. […]\n(§4) Samples (5 μL, 10 μL or 20 μL as indicated in the Figures) of liquid drug formulation were placed on sterile filter paper disks and the disks allowed to air dry 15-30 minutes at room temperature in a Class II biosafety hood. […] A portion of each sample was analyzed for potency. […]"}, "[2]": {"tested_on": "Aspergillis fumigatus (ATCC 16424)", "assay": "Filter paper disk test on agar plates containing A. fumigatus (zone of killing)", "assay_type": "cell-based", "conditions": "5 μL or 10 μL on paper disk, 37° C., 24-72 hours", "procedure": "as §1, §2, §3, §4"}}, "data": [{"smiles": "Clc1ccc(COC(Cn2ccnc2)c2ccc(Cl)cc2Cl)c(Cl)c1", "note": "(centres unmarked) [Miconazole, miconazole]", "values": [{"measurement": "killing of C. albicans (visual observation of plates)", "setting": "[1]", "value": "highly active"}, {"measurement": "killing of A. fumigatus (visual observation of plates)", "setting": "[2]", "value": "highly active"}]}]}
